From ChEMBL document CHEMBL6182945, “MMAE-Based Peptide-Drug Conjugates Targeting GPC3 for Precision Chemoradiotherapy in Hepatocellular Carcinoma” (J Med Chem, 2025)

How the values were obtained:
[1] = Toxicity in female BALB/c mouse xenografted with human Huh-7 cells assessed as pathological change in spleen tissue at 1 mg/kg, iv followed by irradiated with 2 Gy for 2 consecutive days, once a week for 3 weeks measured on day 22; format: organism-based; details: in vivo, 528 h, time 22 day
[2] = Toxicity in female BALB/c mouse xenografted with human Huh-7 cells assessed as pathological change in liver tissue at 2 mg/kg, iv total 4 doses measured on day 17 by hematoxylin and eosin (H and E) staining analysis; format: organism-based; details: in vivo, 408 h, time 17 day
[3] = test system: Hep 3B2; test: Antiproliferative activity against GPC3-positive human Hep3B cells assessed as cytotoxicity measured after 72 hrs by MTT assay; format: functional, cell-based
[4] = Stability in PBS at 500 uM measured up to 48 hrs by LC-MS/MS analysis; format: physicochemical; details: buffer
[5] = Toxicity in female BALB/c mouse xenografted with human Huh-7 cells assessed as pathological change in lung tissue at 2 mg/kg, iv total 4 doses measured on day 17 by hematoxylin and eosin (H and E) staining analysis; format: organism-based; details: in vivo, 408 h, time 17 day
[6] = Toxicity in female BALB/c mouse xenografted with human Huh-7 cells assessed as pathological change in lung tissue at 1 mg/kg, iv followed by irradiated with 2 Gy for 2 consecutive days, once a week for 3 weeks measured on day 22; format: organism-based; details: in vivo, 528 h, time 22 day
[7] = biological target: Cathepsin B (Homo sapiens, UniProt P07858); test: Drug metabolism assessed as human cathepsin B-mediated monomethyl auristatin E release in HEK293 cells at pH 5.5 buffer measured after 30 mins by LC-MS/MS analysis; format: ADME, cell-based; details: hek293, pH 5.5, 0.5 h
[8] = Plasma stability in human plasma assessed as compound remaining at 500 uM measured after 8 hrs by LC-MS/MS analysis relative to control; format: ADME, cell-free; details: read-out: Stability
[9] = Plasma stability in mouse plasma assessed as half life at 500 uM by LC-MS/MS analysis; format: ADME, cell-free
[10] = test system: HeLa; test: Antiproliferative activity against GPC3-negative human HeLa cells assessed as cytotoxicity measured after 72 hrs by MTT assay; format: functional, cell-based
[11] = Toxicity in female BALB/c mouse xenografted with human Huh-7 cells assessed as pathological change in heart tissue at 2 mg/kg, iv total 4 doses measured on day 17 by hematoxylin and eosin (H and E) staining analysis; format: organism-based; details: in vivo, 408 h, time 17 day
[12] = Toxicity in female BALB/c mouse xenografted with human Huh-7 cells assessed as pathological change in heart tissue at 1 mg/kg, iv followed by irradiated with 2 Gy for 2 consecutive days, once a week for 3 weeks measured on day 22; format: organism-based; details: in vivo, 528 h, time 22 day
[13] = Toxicity in female BALB/c mouse xenografted with human Huh-7 cells assessed as pathological change in kidney tissue at 1 mg/kg, iv followed by irradiated with 2 Gy for 2 consecutive days, once a week for 3 weeks measured on day 22; format: organism-based; details: in vivo, 528 h, time 22 day
[14] = Toxicity in female BALB/c mouse xenografted with human Huh-7 cells assessed as pathological change in kidney tissue at 2 mg/kg, iv total 4 doses measured on day 17 by hematoxylin and eosin (H and E) staining analysis; format: organism-based; details: in vivo, 408 h, time 17 day
[15] = Plasma stability in human plasma assessed as half life at 500 uM by LC-MS/MS analysis; format: ADME, cell-free
[16] = Toxicity in female BALB/c mouse xenografted with human Huh-7 cells assessed as pathological change in spleen tissue at 2 mg/kg, iv total 4 doses measured on day 17 by hematoxylin and eosin (H and E) staining analysis; format: organism-based; details: in vivo, 408 h, time 17 day
[17] = Plasma stability in human plasma assessed as compound remaining at 500 uM measured after 48 hrs by LC-MS/MS analysis relative to control; format: ADME, cell-free; details: read-out: Stability
[18] = Plasma stability in mouse plasma assessed as compound remaining at 500 uM measured after 8 hrs by LC-MS/MS analysis relative to control; format: ADME, cell-free; details: read-out: Stability
[19] = Toxicity in female BALB/c mouse xenografted with human Huh-7 cells assessed as body weight change at 0.5 to 2 mg/kg, iv total 4 doses measured on day 17; format: organism-based; details: in vivo, 408 h, dose 0.5-2 mg/kg, time 17 day
[20] = Toxicity in female BALB/c mouse xenografted with human Huh-7 cells assessed as pathological change in liver tissue at 1 mg/kg, iv followed by irradiated with 2 Gy for 2 consecutive days, once a week for 3 weeks measured on day 22; format: organism-based; details: in vivo, 528 h, time 22 day
[21] = test system: Huh-7; test: Antiproliferative activity against GPC3-positive human Huh-7 cells assessed as cytotoxicity measured after 72 hrs by MTT assay; format: functional, cell-based; details: Huh-7, 72 h
[22] = test system: LX-2; test: Antiproliferative activity against GPC3-negative human LX-2 cells assessed as cytotoxicity measured after 72 hrs by MTT assay; format: functional, cell-based; details: LX-2, 72 h
[23] = Toxicity in female BALB/c mouse xenografted with human Huh-7 cells assessed as body weight change at 1 mg/kg, iv followed by irradiated with 2 Gy for 2 consecutive days, once a week for 3 weeks measured on day 22; format: organism-based; details: in vivo, 528 h, time 22 day

Question: Which Activity [1] does the source give for CC[C@H](C)[C@@H]([C@@H](CC(=O)N1CCC[C@H]1[C@H](OC)[C@@H](C)C(=O)N[C@H](C)[C@@H](O)c1ccccc1)OC)N(C)C(=O)[C@@H](NC(=O)[C@H](C(C)C)N(C)C(=O)OCc1ccc(NC(=O)[C@H](CCCNC(N)=O)NC(=O)[C@@H](NC(=O)CCCCCN2C(=O)CC(SC[C@H](N)C(=O)N[C@@H](CO)C(=O)N[C@@H](CC(N)=O)C(=O)N[C@@H](CC(=O)O)C(=O)N[C@@H](CCCNC(=N)N)C(=O)N3CCC[C@H]3C(=O)N3CCC[C@H]3C(=O)N[C@@H](CC(N)=O)C(=O)N[C@H](C(=O)N[C@@H](CC(C)C)C(=O)N[C@@H](CCC(N)=O)C(=O)N[C@@H](CCCCN)C(=O)N[C@@H](CCCNC(=N)N)C(N)=O)[C@@H](C)CC)C2=O)C(C)C)cc1)C(C)C (stereo partly drawn) here?
Answer: Its Activity is “Non-toxic”.

Question: And the Activity [2]?
Answer: Its Activity is “Non-toxic”.

Question: And the IC50 [3]?
Answer: The IC50 was 12.2 nM.

Question: What about the Stability [4] of the same compound?
Answer: Its Stability is “Stable”.

Question: And the Activity [5]?
Answer: The Activity was “Non-toxic”.

Question: And the Activity [6]?
Answer: Its Activity is “Non-toxic”.

Question: And the Drug metabolism [7]?
Answer: The Drug metabolism was “metabolite_detected”.

Question: What about the remaining at 8 h, 500 µM [8] of the same compound?
Answer: The remaining at 8 h, 500 µM was 57.2%.

Question: What about the half-life at 500 µM [9] of the same compound?
Answer: The half-life at 500 µM was 4 h.

Question: And the IC50 [10]?
Answer: The IC50 was greater than 100 nM.

Question: What about the Activity [11] of the same compound?
Answer: The Activity was “Non-toxic”.

Question: And the Activity [12]?
Answer: The Activity was “Non-toxic”.

Question: And the Activity [13]?
Answer: Its Activity is “Non-toxic”.

Question: And the Activity [14]?
Answer: The Activity was “Non-toxic”.

Question: And the half-life at 500 µM [15]?
Answer: Its half-life at 500 µM is 8.8 h.

Question: What about the Activity [16] of the same compound?
Answer: The Activity was “Non-toxic”.

Question: And the remaining at 48 h, 500 µM [17]?
Answer: Its remaining at 48 h, 500 µM is 25.3%.

Question: And the remaining at 8 h, 500 µM [18]?
Answer: The remaining at 8 h, 500 µM was 19.9%.

Question: And the Activity [19]?
Answer: The Activity was “Non-toxic”.

Question: What about the Activity [20] of the same compound?
Answer: Its Activity is “Non-toxic”.

Question: And the IC50 [21]?
Answer: The IC50 was 1.91 nM.

Question: And the IC50 [22]?
Answer: Its IC50 is greater than 100 nM.

Question: What about the Activity [23] of the same compound?
Answer: Its Activity is “Non-toxic”.
